According to patent publication US20260021082A1, “EZH2 INHIBITION THERAPIES FOR THE TREATMENT OF AT-RICH INTERACTIVE DOMAIN-CONTAINING PROTEIN 1A (ARID1A) MUTATED CANCERS” (Constellation Pharmaceuticals, Inc., priority 2022, published 2026):

What was measured:
[1] = pharmacokinetics in the ARID1A mutant HT1376 xenograft mouse model; type: in vivo
Protocol: (§1) Response of Compound 1 treatment relative to other EZH2, dual EZH1 and EZH2, or EED inhibitors was analyzed in vitro and in vivo.

[2] = system: ARID1A mutant HT1376 bladder cancer xenografts; experiment: HT1376 xenograft tumor growth inhibition; type: in vivo, mice; settings: ARID1A mutated HT1376 xenograft, 75 mg/kg QD; for tumor growth inhibition (TGI) compared to vehicle: day 27
Protocol: Data represented as mean tumor volume+SEM, with n=5 mice per group for all groups except 150 mg/kg, which had n=3. P-values calculated using 2-way ANOVA up to day 30, ns=p>0.05, *p<0.05. […]
Cell line derived xenograft tumor experiments were performed at WuXi AppTec, Shanghi, China. Patient derived xenograft experiments were performed at Crown BioScience Inc., Taicang Jiangsu Province, China, or Champions Oncology, Rockville, MD, US. All the procedures related to animal handling, care and the treatment in the xenograft studies were performed according to the guidelines approved by the Institutional Animal Care and Use Committee (IACUC) of WuXi AppTec or Crown BioScience Inc. following the guidance of the Association for Assessment and Accreditation of Laboratory Animal Care (AAALAC). The mice were kept in individual ventilation cages at constant temperature and humidity with 3-5 animals in each cage. Mice were checked daily for any effects of tumor growth and/or treatments on normal behavior such as mobility, food and water consumption, body weight gain/loss, eye, and any other abnormal effects. […] Animal body weight was monitored regularly as an indirect measurement of toxicity. Supplemented diet was provided after cell inoculation for all groups to help with body weight maintenance. If an animal lost >15% body weight, their treatments were suspended accordingly then resumed when body weight loss returned to <10%.
The HT1376 and HT1197 bladder cancer cell lines and Karpas-422 lymphoma cell line were expanded in vitro under routine subculturing procedures in the medium recommended by the supplier, harvested while in the exponential growth phase, and counted for tumor inoculation. For HT1376 and Karpas-422 studies, female CB17 SCID mice at 6-8 weeks of age were used for study initiation; for the HT1197 study, female Balb/c nude mice at 6-8 weeks of age were used. Each mouse was inoculated subcutaneously in the right flank with tumor cells in 0.2 ml PBS mixed with Matrigel (BD Biosciences); 5×10^6 cells per injection were used for HT1376 and Karpas-422 cell lines and 1×10^7 cells per injection for HT1197 cells. […] Mice undergoing extended dosing holidays due to body weight loss (>10 days, n=2 mice in the 150 mg/kg Compound 1 HT1376 group only), were censored from the study and not included in the data presented.
Tumor size was measured thrice weekly in two dimensions using a caliper, and the volume was expressed in mm3 using the formula: V=0.5a×b2 where a and b are the long and short diameters of the tumor, respectively. TGI was calculated for each group using the formula: TGI (%)=[1−(Ti−T0)/(Vi−V0)]×100; Ti is the average tumor volume of a treatment group on a certain day, T0 is the average tumor volume of the treatment group on the day of treatment start, Vi is the average tumor volume of the vehicle control group on the same day with Ti, and V0 is the average tumor volume of the vehicle group on the day of treatment start.
To further explore the potential dose dependence of Compound 1 on tumor growth inhibition in vivo, HT1376 xenograft studies were carried out using Compound 1 doses from 10 to 150 mg/kg QD orally once daily (PO, QD). […]

[3] = long-term cell viability assays in vitro, comparison of PRC2 inhibitors; type: cell-based
Protocol: as §1

[4] = CB17 SCID, mouse, in vivo, 75 mg/kg
[5] = Day 1, 75 mg/kg, HT1376 xenograft mouse, plasma

| Structure (SMILES) | Cmax [1, 4] [ng/mL] | T1/2 [1, 4] [h] | Tmax [1, 4] [h] | AUClast (hg*ng/mL) ([1]; mouse, in vivo, 75 mg/kg) | Cmax ([1]; mouse, in vivo, 75 mg/kg) [ng/mL] | T1/2 ([1]; mouse, in vivo, 75 mg/kg) [h] | Tmax ([1]; mouse, in vivo, 75 mg/kg) [h] | AUClast (hg*ng/mL) [1, 5] [hg*ng/mL] | Cmax [1, 5] [ng/mL] | T1/2 [1, 5] [h] | Tmax [1, 5] [h] | tumor growth inhibition (TGI) compared to vehicle [2] [%] | GI50 [3] [nM] | tumor volume course during treatment [2] |
| --- | --- | --- | --- | --- | --- | --- | --- | --- | --- | --- | --- | --- | --- | --- |
| Cc1ncccc1-c1cnc(NCc2c(F)ccc3c2CCO3)n2cnnc12 [MAK683] | – | – | – | 13100 | 5660 | 1.18 | 1.00 | – | – | – | – | – | 73 | – |
| CCN(c1cc(-c2ccc(CN3CCOCC3)cc2)cc(C(=O)NCc2c(C)cc(C)[nH]c2=O)c1C)C1CCOCC1 [tazemetostat] | – | – | – | – | – | – | – | 23200 | 9530 | 1.43 | 0.50 | 32 | 385 | – |
| Cc1cc(C)c(CNC(=O)c2cc(Cl)c3c(c2C)O[C@@](C)([C@H]2CC[C@H](N(C)C)CC2)O3)c(=O)[nH]1 [valemetostat] | – | – | – | – | – | – | – | 7600 | 3090 | 3.00 | 1.33 | – | 18 | did not reach full regression |

More lines, main results first:

| Cmax [1, 4] [ng/mL] | T1/2 [1, 4] [h] | Tmax [1, 4] [h] | AUClast (hg*ng/mL) ([1]; mouse, in vivo, 75 mg/kg) | Cmax ([1]; mouse, in vivo, 75 mg/kg) [ng/mL] | T1/2 ([1]; mouse, in vivo, 75 mg/kg) [h] | Tmax ([1]; mouse, in vivo, 75 mg/kg) [h] | AUClast (hg*ng/mL) [1, 5] [hg*ng/mL] | Cmax [1, 5] [ng/mL] | T1/2 [1, 5] [h] | Tmax [1, 5] [h] | Structure (SMILES) | tumor growth inhibition (TGI) compared to vehicle [2] [%] | GI50 [3] [nM] | tumor volume course during treatment [2] |
| --- | --- | --- | --- | --- | --- | --- | --- | --- | --- | --- | --- | --- | --- | --- |
| 50800 | 1.24 | 0.50 | 59900 | – | – | – | – | – | – | – | COc1cc(C)[nH]c(=O)c1CNC(=O)c1c(C)n([C@H](C)C2CCN(CC(F)(F)F)CC2)c2ccccc12 [CPI-1205] | 40 | 574 | – |
| – | – | – | 3380 | 3740 | 1.01 | 0.50 | – | – | – | – | COc1cc(C)[nH]c(=O)c1CN1CCc2c(Cl)cc([C@H](OC)C3COC3)c(Cl)c2C1=O [PF-06821497] | 41 | ~5 | – |
